What was measured:
CDK6/Cyclin D3 = CDK6/Cyclin D3 (Homo sapiens (Human), UniProt Q00534); assay: TR-FRET kinase inhibition assay, CDK6/Cyclin D3; format: biochemical; details: 1 mM ATP, 0.15 μM Rb (Ser780)-biotin substrate, read-out: CDK6D3 IC50
Procedure: (§1) Compounds disclosed herein were tested for inhibition of CDK4/Cyclin D1 or CDK6/Cyclin D3 kinase in an assay based on the time-resolved fluorescence-resonance energy transfer (TR-FRET) methodology. The assay was carried out in 384-well low volume black plates in a reaction mixture containing CDK4/Cyclin D1 or CDK6/Cyclin D3, 1 mM ATP, 0.15 μM Rb (Ser780)-biotin substrate and 0-10 μM compound in buffer containing 50 mM HEPES pH7.0, 0.02% NaN3, 0.01% BSA, 0.1 mM Orthovanadate, 50 mM MgCl2, 1 mM DTT and 0.005% Tween-20. The kinase was incubated with compound for 60 minutes at room temperature and the reaction was initiated by the addition of ATP and Rb (Ser780)-biotin substrate. After reaction at room temperature for 120 minutes, an equal volume of stop/detection solution was added according to the manufacture's instruction (Cisbio Bioassays). The stop/detection solution contained Streptavidin-XL665 and Anti-pRb (Ser780) mAb-Eu Cryptate in Detection buffer (Cisbio Bioassays). Plates were incubated at room temperature for 60 minutes, and the TR-FRET signals (ex337 nm, em665 nm/620 nm) were recorded on a PHERAstar FSX plate reader (BMG Labtech). The inhibition percentage of CDK4/Cyclin D1 or CDK6/Cyclin D3 kinase activity in presence of increasing concentrations of compounds was calculated based on the ratio of fluorescence at 665 nm to that at 620 nm. The IC50 for each compound was derived from fitting the data to the four-parameter logistic equation by Dotmatics.

CDK4/Cyclin D1 = CDK4/Cyclin D1 (Homo sapiens (Human), UniProt P11802); assay: TR-FRET kinase inhibition assay, CDK4/Cyclin D1; format: biochemical; details: 1 mM ATP, 0.15 μM Rb (Ser780)-biotin substrate, read-out: CDK4D1 IC50
Procedure: as §1, with “The assay was carried out in 384-well low volume black plates in a reaction mixture containing CDK4/Cyclin D1 or CDK6/Cyclin D3, 1 mM ATP, 0.15 μM Rb (Ser780)-biotin substrate and 0-10 μM compound in buffer containing 50 mM HEPES pH7.0, 0.02% NaN3, 0.01% BSA, 0.1 mM Orthovanadate, 50 mM MgCl2, 1 mM DTT and 0.005% Tween-20.” left out, “Plates were incubated at room temperature for 60 minutes, and the TR-FRET signals (ex337 nm, em665 nm/620 nm) were recorded on a PHERAstar FSX plate reader (BMG Labtech).” left out

Chain of CDK6/Cyclin D3 (Q00534 whole entry): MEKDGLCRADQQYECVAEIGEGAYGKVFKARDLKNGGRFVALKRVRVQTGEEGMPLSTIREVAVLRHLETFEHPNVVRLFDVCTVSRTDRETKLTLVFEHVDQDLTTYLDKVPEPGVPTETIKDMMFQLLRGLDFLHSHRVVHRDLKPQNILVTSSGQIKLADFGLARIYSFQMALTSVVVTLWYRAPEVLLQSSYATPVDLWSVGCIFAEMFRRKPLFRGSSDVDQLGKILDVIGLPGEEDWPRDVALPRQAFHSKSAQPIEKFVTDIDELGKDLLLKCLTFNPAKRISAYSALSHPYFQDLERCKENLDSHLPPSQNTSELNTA
Chain of CDK6/Cyclin D3 (P30281 whole entry partner): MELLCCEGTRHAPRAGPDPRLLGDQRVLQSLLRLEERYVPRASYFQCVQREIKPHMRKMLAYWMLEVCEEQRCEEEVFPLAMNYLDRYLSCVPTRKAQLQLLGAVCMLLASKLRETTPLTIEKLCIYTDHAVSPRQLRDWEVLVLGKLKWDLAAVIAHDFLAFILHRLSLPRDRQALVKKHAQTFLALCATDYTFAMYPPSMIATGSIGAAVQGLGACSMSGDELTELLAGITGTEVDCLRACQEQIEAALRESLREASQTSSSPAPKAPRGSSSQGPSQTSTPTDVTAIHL
Chain of CDK4/Cyclin D1 (P11802 whole entry): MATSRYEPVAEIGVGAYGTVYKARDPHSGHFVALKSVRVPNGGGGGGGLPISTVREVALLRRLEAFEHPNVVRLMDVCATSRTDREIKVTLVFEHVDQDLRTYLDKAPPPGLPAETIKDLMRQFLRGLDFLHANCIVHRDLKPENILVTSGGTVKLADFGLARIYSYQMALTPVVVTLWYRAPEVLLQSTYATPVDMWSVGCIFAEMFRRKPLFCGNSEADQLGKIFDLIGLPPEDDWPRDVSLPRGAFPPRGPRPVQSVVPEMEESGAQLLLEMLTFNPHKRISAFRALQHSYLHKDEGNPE
Chain of CDK4/Cyclin D1 (P24385 whole entry partner): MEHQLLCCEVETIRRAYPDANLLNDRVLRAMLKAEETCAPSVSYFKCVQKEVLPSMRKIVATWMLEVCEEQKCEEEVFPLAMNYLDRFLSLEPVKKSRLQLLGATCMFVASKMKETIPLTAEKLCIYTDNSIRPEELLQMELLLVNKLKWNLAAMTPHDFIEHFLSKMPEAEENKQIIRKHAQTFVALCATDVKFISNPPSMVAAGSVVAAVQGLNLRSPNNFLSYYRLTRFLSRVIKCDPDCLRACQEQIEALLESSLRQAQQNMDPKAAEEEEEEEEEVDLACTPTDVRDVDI

Compound | IC50 (CDK6/Cyclin D3) [nM] | IC50 (CDK4/Cyclin D1) [nM]
CC(C)n1c(CNC(C)(C)C)cc(=O)c2ccc(-c3nc(N[C@@H]4CCOC[C@H]4O)ncc3F)cc21 [Example 75, 2-((tert-butylamino)methyl)-7-(5-fluoro-2-(((3S,4R)-3-hydroxytetrahydro-2H-pyran-4-yl)amino)pyrimidin-4-yl)-1-isopropylquinolin-4(1H)-one] | 525 | 21
CC(C)n1c(C(=O)N2CCOCC2)cc(=O)c2ccc(-c3nc(N[C@@H]4CCOC[C@H]4O)ncc3Cl)cc21 [Example 13, 7-(5-chloro-2-(((3S,4R)-3-hydroxytetrahydro-2H-pyran-4-yl)amino)pyrimidin-4-yl)-1-isopropyl-2-(morpholine-4-carbonyl)quinolin-4(1H)-one] | 539 | 93
CNC(=O)c1c(Cl)c(=O)c2ccc(-c3nc(N[C@@H]4CCOC[C@H]4O)ncc3F)cc2n1C(C)C [Example 23, 3-chloro-7-(5-fluoro-2-(((3S,4R)-3-hydroxytetrahydro-2H-pyran-4-yl)amino)pyrimidin-4-yl)-1-isopropyl-N-methyl-4-oxo-1,4-dihydroquinoline-2-carboxamide] | 445 | 53
CC(C)n1c(CN2CCOCC23CC3)cc(=O)c2ccc(-c3nc(N[C@@H]4CCOC[C@H]4O)ncc3F)cc21 [Example 73, 2-((7-oxa-4-azaspiro[2.5]octan-4-yl)methyl)-7-(5-fluoro-2-(((3S,4R)-3-hydroxytetrahydro-2H-pyran-4-yl)amino)pyrimidin-4-yl)-1-isopropylquinolin-4(1H)-one] | 225 | 7.5
CC(C)n1c(CN2CC[C@H](O)C2)cc(=O)c2ccc(-c3nc(N[C@@H]4CCOC[C@H]4O)ncc3F)cc21 [Example 86, 7-(5-fluoro-2-(((3S,4R)-3-hydroxytetrahydro-2H-pyran-4-yl)amino)pyrimidin-4-yl)-2-(((S)-3-hydroxypyrrolidin-1-yl)methyl)-1-isopropylquinolin-4(1H)-one] | 777 | 21
CC(C)n1c(CN2[C@H](C)COC[C@H]2C)cc(=O)c2ccc(-c3nc(N[C@@H]4CCOC[C@H]4O)ncc3F)cc21 [Example 106, 2-(((3R,5R)-3,5-dimethylmorpholino)methyl)-7-(5-fluoro-2-(((3S,4R)-3-hydroxytetrahydro-2H-pyran-4-yl)amino)pyrimidin-4-yl)-1-isopropylquinolin-4(1H)-one] | 298 | 4.8
Cc1c(CN2CCOCC2)n(C(C)C)c2cc(-c3nc(N[C@@H]4CCOC[C@H]4O)ncc3F)ccc2c1=O [Example 58, 7-(5-fluoro-2-(((3S,4R)-3-hydroxytetrahydro-2H-pyran-4-yl)amino)pyrimidin-4-yl)-1-isopropyl-3-methyl-2-(morpholinomethyl)quinolin-4(1H)-one] | 78.2 | 3.4
Cc1cn(C(C)C)c2cc(-c3nc(N[C@@H]4CCOC[C@H]4O)ncc3F)ccc2c1=O [Example 2, 7-(5-fluoro-2-(((3S,4R)-3-hydroxytetrahydro-2H-pyran-4-yl)amino)pyrimidin-4-yl)-1-isopropyl-3-methylquinolin-4(1H)-one] | 1220 | 68
Cc1c(CN[C@@H]2CCOC2)n(C(C)C)c2cc(-c3nc(N[C@@H]4CCOC[C@H]4O)ncc3F)ccc2c1=O [Example 112, 7-(5-fluoro-2-(((3S,4R)-3-hydroxytetrahydro-2H-pyran-4-yl)amino)pyrimidin-4-yl)-1-isopropyl-3-methyl-2-((((R)-tetrahydrofuran-3-yl)amino)methyl)quinolin-4(1H)-one] | 615 | 15
CC(C)n1c(CN2C[C@@H](O)[C@H](F)C2)cc(=O)c2ccc(-c3nc(N[C@@H]4CCOC[C@H]4O)ncc3F)cc21 [Example 46, 7-(5-fluoro-2-(((3S,4R)-3-hydroxytetrahydro-2H-pyran-4-yl)amino)pyrimidin-4-yl)-2-(((3R,4R)-3-fluoro-4-hydroxypyrrolidin-1-yl)methyl)-1-isopropylquinolin-4(1H)-one] | 480 | 12
CC(C)n1c(CN2CCC[C@]3(CCNC3=O)C2)cc(=O)c2ccc(-c3nc(N[C@@H]4CCOC[C@H]4O)ncc3F)cc21 [Example 105, (S)-7-((7-(5-fluoro-2-(((3S,4R)-3-hydroxytetrahydro-2H-pyran-4-yl)amino)pyrimidin-4-yl)-1-isopropyl-4-oxo-1,4-dihydroquinolin-2-yl)methyl)-2,7-diazaspiro[4.5]decan-1-one] | 291 | 4.1
CC(C)n1c(CN2CCC(C#N)CC2)cc(=O)c2ccc(-c3nc(N[C@@H]4CCOC[C@H]4O)ncc3F)cc21 [Example 37, 1-((7-(5-fluoro-2-(((3S,4R)-3-hydroxytetrahydro-2H-pyran-4-yl)amino)pyrimidin-4-yl)-1-isopropyl-4-oxo-1,4-dihydroquinolin-2-yl)methyl)piperidine-4-carbonitrile] | 682 | 22
CC(C)n1c(C2CCCN2)cc(=O)c2ccc(-c3nc(N[C@@H]4CCOC[C@H]4O)ncc3F)cc21 (stereo partly drawn) [Example 388, 7-(5-fluoro-2-(((3S,4R)-3-hydroxytetrahydro-2H-pyran-4-yl)amino)pyrimidin-4-yl)-1-isopropyl-2-(pyrrolidin-2-yl)quinolin-4(1H)-one] | 450 | 10
Cc1c(CN2[C@H](C)COC[C@H]2C)n(C(C)C)c2cc(-c3nc(N[C@@H]4CCOC[C@H]4O)ncc3F)ccc2c1=O [Example 71, 2-(((3R,5R)-3,5-dimethylmorpholino)methyl)-7-(5-fluoro-2-(((3S,4R)-3-hydroxytetrahydro-2H-pyran-4-yl)amino)pyrimidin-4-yl)-1-isopropyl-3-methylquinolin-4(1H)-one] | 140 | 2.7
CC(C)n1c(CNC2CCCC2)cc(=O)c2ccc(-c3nc(N[C@@H]4CCOC[C@H]4O)ncc3F)cc21 [Example 66, 2-((cyclopentylamino)methyl)-7-(5-fluoro-2-(((3S,4R)-3-hydroxytetrahydro-2H-pyran-4-yl)amino)pyrimidin-4-yl)-1-isopropylquinolin-4(1H)-one] | 651 | 21
CC(C)n1c(CN2CCC(C)(C)CC2)cc(=O)c2ccc(-c3nc(N[C@@H]4CCOC[C@H]4O)ncc3F)cc21 [Example 97, 2-((4,4-dimethylpiperidin-1-yl)methyl)-7-(5-fluoro-2-(((3S,4R)-3-hydroxytetrahydro-2H-pyran-4-yl)amino)pyrimidin-4-yl)-1-isopropylquinolin-4(1H)-one] | 2050 | 64
CC(C)n1c(CN2CCC[C@H](F)C2)cc(=O)c2ccc(-c3nc(N[C@@H]4CCOC[C@H]4O)ncc3F)cc21 [Example 69, 7-(5-fluoro-2-(((3S,4R)-3-hydroxytetrahydro-2H-pyran-4-yl)amino)pyrimidin-4-yl)-2-(((S)-3-fluoropiperidin-1-yl)methyl)-1-isopropylquinolin-4(1H)-one] | 693 | 21
CC(C)n1c(CN(C)C)cc(=O)c2ccc(-c3nc(N[C@@H]4CCOC[C@H]4O)ncc3F)cc21 [Example 20, 2-((dimethylamino)methyl)-7-(5-fluoro-2-(((3S,4R)-3-hydroxytetrahydro-2H-pyran-4-yl)amino)pyrimidin-4-yl)-1-isopropylquinolin-4(1H)-one] | 510 | 15
CC(C)n1c(CN2CCC3(CCCO3)CC2)cc(=O)c2ccc(-c3nc(N[C@@H]4CCOC[C@H]4O)ncc3F)cc21 [Example 44, 2-((1-oxa-8-azaspiro[4.5]decan-8-yl)methyl)-7-(5-fluoro-2-(((3S,4R)-3-hydroxytetrahydro-2H-pyran-4-yl)amino)pyrimidin-4-yl)-1-isopropylquinolin-4(1H)-one] | 1280 | 29
CC(C)n1cc(Cl)c(=O)c2ccc(-c3nc(N[C@@H]4CCOC[C@H]4O)ncc3F)cc21 [Example 12, 3-chloro-7-(5-fluoro-2-(((3S,4R)-3-hydroxytetrahydro-2H-pyran-4-yl)amino)pyrimidin-4-yl)-1-isopropylquinolin-4(1H)-one] | 1930 | 258

Source: patent publication US20250136586A1, “Substituted 7-(Pyrimidin-4-yl)Quinolin-4(1H)-One Compounds as Cyclin Dependent Kinase Inhibitors” (BeiGene, Ltd., priority 2022, published 2025)
